Tests used:
[1] = test system: primary neuronal cultures; test: IL-6 exposure of primary neuronal cultures: oxidized DHE, Nox2, parvalbumin and GAD67; type: cell-based, mouse
Procedure: IL-6 increases superoxide in a Nox dependent manner, and reduces GAD67 and parvalbumin in primary cultures, as summarized by the data graphically presented in FIG. 18. […] As before, dihydroethidium (DHE) was applied for the last hour (DHE detects superoxide and hydrogen peroxide). After fixation, ICC for PV and GAD67 was carried out as described in methods and quantitative confocal microscopy was utilized for fluorescence analysis.
DHE (1 μg/ml) was added during the last hour of treatment. Images show the increase in Nox2 immunoreactivity and oxidized DHE upon treatment with IL-6. Bar-graphs show the results of quantification of oxidized DHE and Nox2 fluorescence expressed as % of control. […] Data are means±SEM. Baseline intensities: DHE=21±4.7; Nox2=18.7±2.6.
Fluorescence confocal images of representative fields depicting the expression of parvalbumin (PV) and GAD67 in PV-interneurons. Bar-graph represents the quantification of fluorescence expressed as % of control. […] Data are means±SEM. Baseline intensities: PV=135±32; GAD67=114±26.
IL-6 potentiates ketamine effects on PV-interneurons. […] After fixation, ICC for GAD67 and parvalbumin was carried out as described by Kinney (2006) J. Neurosci. […] N=3 cultures per condition.

NADPH oxidase (Nox) = test: Nox activity in synaptosomes by NADPH-dependent oxygen consumption (oximetry); type: biochemical, mouse
Procedure: Synaptosomal preparations. […] Mice were euthanized by exposure to a lethal dose of inhaled halothane, followed by cervical dislocation. Brains were rapidly removed, cortices dissected and homogenized in 10 volumes of ice-cold isolation buffer (0.32M sucrose, 1 mM EDTA, 10 mM Tris-HCl buffer, pH 7.4, 10 mM glucose). The homogenate was centrifuged at 3100 rpm for 3 min at 4° C., and the supernatant collected, and the pellet was re-homogenized in half the volume of isolation buffer and centrifuged again. Synaptosomal were then isolated as described (see reference 30, below) modified as follows, the pooled supernatants were mixed with PERCOLL™ (Sigma, St. Louis, Mo.) to a final concentration of 15%, and then layered onto a step gradient of 23% and 40% PERCOLL™, and centrifuged at 16,000 rpm for 5 minutes at 4° C. The uppermost band was extracted, rinsed in isolation buffer, centrifuged and resuspended in synaptosomal buffer (120 mM NaCl, 4.7 mM KCl, 2.2 mM CaCl2, 1.2 mM MgCl2, 25 mM HEPES, 1.2 mM MgSO4, 1.2 mM KH2PO4, 10 mM glucose).
Oxygen consumption studies (oximetry). O2 consumption studies on synaptosomes are carried out. […] Studies were carried out to optimize the concentration of synaptosomal protein required, and to confirm stability and viability of synaptosomes and their mitochondria for up to 6 h.

[2] = test system: PV-interneurons in mouse prefrontal cortex; test: two-day ketamine treatment of mice: oxidized DHE, parvalbumin and GAD67 in prefrontal cortex; type: in vivo
Procedure: Animals and treatments. […] Male C57BL6 mice were obtained from Jackson Labs, Bar Harbor, Me., at 8-12 weeks and housed in our facility until 15 weeks when they were used for experiments. Ketamine (30 mg/kg) was applied intraperitoneally (IP) on two consecutive days at around 4 pm. DHE was applied 30 min after the last ketamine injection as described (19, 20). Briefly, two serial i.p. injections of freshly prepared dihydroethidium (27 mg/kg) are given at 30 minute intervals. Eighteen hours later, mice are anesthetized with inhaled halothane, and perfused intracardially with cold saline followed by 4% paraformaldehyde in PBS. The Nox inhibitor, apocynin (5 mg/kg/day) was given in the drinking water for a total of seven days, with an assumed intake of […] H2O/mouse/day, and ketamine was applied on the last two days. […] All animal studies were approved by the Animal Care Program at the University of California, San Diego, and are in accordance the PHS Guide for the Care and Use of Laboratory Animals, USDA Regulations, and the AVMA Panel on Euthanasia.
Immunohistochemistry: Brains were frontally sliced in a vibratome into 50 μm coronal sections encompassing the prefrontal cortex region (from Bregma 2.0 to 1.3). Sequential slices were processed for floating-section double immunohistochemistry for the detection of parvalbumin and GAD67. Antigen retrieval was performed by incubation of the slices in 1% sodium borohydride for 15 min as described (see reference 34, below), followed by washing in PBS and incubation in 10% normal goat serum in PBS for 16 h at 4° C. Primary antibodies (Calbindin: 1:5000: Calretinin: 1:2000; Parvalbumin: 1:3000, all rabbit polyclonals from Swant, Bellinzona, Switzerland. GAD67: 1:1000, from Chemicon-Millipore, Temecula, Calif.) were diluted in 2% normal goat serum in PBS and applied to the slices for 18 h at 4° C., after which slices were washed in PBS and incubated in a 1:1000 dilution of ALEXAFLUOR™ (Molecular Probes, Invitrogen, Carlsbad, Calif.) conjugated goat anti-rabbit (568) or goat anti-mouse (488) antibodies for 1 hr at room temperature (rt). Slices were washed in PBS and mounted sequentially in glass slides using […]™ (Vector Laboratories, Burlingame, Calif.), covered with a coverslip and allowed to dry for at least 24 h before confocal imaging.
Six slices were analyzed per animal.
Analysis of superoxide and/or hydrogen peroxide production by confocal imaging of in vivo dihydroethidium (DHE) oxidation. Mice will be injected intraperitoneally (i.p.) with dihydroethidium.

[3] = apocynin 5 mg/kg/day 1 week in drinking water, C3 1.0 mg/kg/day one month by mini-pumps

SMILES: COc1cc(C(C)=O)ccc1O [apocynin, 4-hydroxy-3-methoxyacetophenone]
- effect on IL-6 effects (DHE oxidation, GAD67 and parvalbumin) ([1]; apocynin 0.5 mM with IL-6 10 ng/ml, 24 h): prevented
- effect on IL-6-induced superoxide production ([1]; apocynin added along with IL-6): eliminated
- effect on Nox2 induction by IL-6 ([1]; apocynin added along with IL-6): not affected
- block of NADPH-induced O2 consumption (NADPH oxidase (Nox); 200 μM apocynin, synaptosomes, 5 mM NADPH): > 90%
- effect on increased Nox activity in synaptosomes from ketamine treated animals (NADPH oxidase (Nox); apocynin added in vitro): inhibited
- effect on ketamine-induced increase in oxidized DHE in vivo [2, 3]: prevented
- effect on ketamine-mediated loss of parvalbumin immunoreactivity in PV-interneurons in vivo [2, 3]: completely prevented
- effect on ketamine-mediated decrease in parvalbumin and GAD67 immunoreactivity in PFC ([2]; apocynin in the drinking water): prevented
